Data as given in patent publication US20220062448A1 (priority 2015, published 2022).

Test system: CD206+macrophages (MOs)
Test: CD206 targeting assay in monocyte-derived CD206+ macrophages (uptake, killing, apoptosis)
Assay type: cell-based
Conditions: FIG. 17
Protocol: CD206 targeting assays were conducted using both in vitro monocyte-derived CD206+macrophages (MOs) and ex vivo fresh Kaposi Sarcoma (KS) tumor tissue (provided by the AIDS and Cancer Specimen Resource [ACSR]). Tilmanocept-Cy 3 with/without a chemo-therapeutic agent (CTA) attached (tilmanocept-Cy3-CTA or tilmanocept-Cy3) interactions with cellular and tumor targets were tracked by flow cytometry and immuno-histochemistry to evaluate Cy3-tilmanocept uptake and targeting capability for delivery of drug into KS tumor cells and TAMs.

COc1cccc2c1C(=O)c1c(O)c3c(c(O)c1C2=O)C[C@@](O)(C(=O)CO)C[C@@H]3O[C@H]1C[C@H](N)[C@H](O)[C@H](C)O1 [Docorubicin, doxorubicin]
toxicity to CD206 expressing macrophages (Annexin levels): no toxicity
effect on cells (apoptosis, cell loss) (compared with tilmanocept-Cy3-CTA): less effect
